Biological target: T1, Uch-L3 (Homo sapiens, UniProt P15374)
T1 sequence (P15374 1-230): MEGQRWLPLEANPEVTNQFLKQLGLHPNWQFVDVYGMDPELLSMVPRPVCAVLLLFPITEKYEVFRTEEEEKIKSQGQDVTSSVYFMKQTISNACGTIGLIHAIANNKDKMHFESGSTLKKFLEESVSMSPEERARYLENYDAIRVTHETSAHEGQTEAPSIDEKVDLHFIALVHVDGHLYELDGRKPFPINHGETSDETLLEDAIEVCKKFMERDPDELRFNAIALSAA
Assay: UCH-L3 Activity Assay
Format: biochemical
Details: 400 nM Ub-AMC; 13 pM enzyme; pre-incubated 30 minutes at 25° C., 60 minutes at 37° C.; sigmoidal fit; read-out: Uch-L3 (Inhibition of cysteine protease activities)
Experimental: Uch-L3 was diluted in USP buffer (50 mM Tris HCl; 0.5 mM EDTA; 5 mM DTT; 0.01% Triton X-100; Bovine Serum Albumin 0.05 mg.ml^−1 pH7.6). Compounds stocks (100 mM) were stored at −20° C. in DMSO. Compounds were tested at the following final concentrations: 100 μM; 33.3 μM; 11.1 μM: 3.7 μM; 1.23 μM; 412 nM; 137 nM; 45.7 nM; 15.2 nM; 5 nM.
Reactions were performed as duplicates in Black LJL 96 well plates (HE microplates; Molecular Devices; 20 μl final reaction volume). The substrate concentration for Uch-L3 was 400 nM Ub-AMC (Boston Biochem). The concentration of the enzyme (Uch-L3) in specificity assays was 13 pM. The concentrations were determined in order to perform specificity assays under initial velocities at fixed substrate concentration. Compounds were pre-incubated with enzymes for 30 minutes at 25° C. Reactions were initiated by addition of substrate to the plates containing the enzymes (+/−compounds) diluted in assay buffer. Reactions were incubated for 60 minutes at 37° C. Reactions were stopped by adding acetic acid (100 mM final). Readings were performed on a Pherastar Fluorescent Reader (BMG). δ Emission 380 nm; δ Excitation=460 nm. Data (mean values +/− standard deviation) were analyzed as % of control (no compound) and plotted as percentage versus the Log of the compound concentration using GraphPad (Prism). Data were fitted to a sigmoidal model (variable slope).

Compound	IC50
6-(7)-Chloro-1-methyl-2,3,4,10,10a-pentaaza-cyclopenta[b]fluoren-9-one [Example 3/A]	323 nM
Cc1nnc2nc3c(nn12)C(=O)c1ccccc1-3 [Example 1b/A, 1-Methyl-2,3,4,10,10a-pentaaza-cyclopenta[b]fluoren-9-one]	516 nM
Cc1nnc2nc3c(nn12)-c1ccccc1C3=O [Example 1b/B, 3-Methyl-1,2,3a,4,10-pentaaza-cyclopenta[b]fluoren-9-one]	143 nM
Nc1nnc2nc3c(nn12)C(=O)c1ccccc1-3 [Example 1c/A, 1-Amino-2,3,4,10,10a-pentaaza-cyclopenta[b]fluoren-9-one]	860 nM
Nc1nnc2nc3c(nn12)-c1ccccc1C3=O [Example 1c/B, 3-Amino-1,2,3a,4,10-pentaaza-cyclopenta[b]fluoren-9-one]	133 nM
CCc1nnc2nc3c(nn12)C(=O)c1ccccc1-3 [Example 1d/A, 1-Ethyl-2,3,4,10,10a-pentaaza-cyclopenta[b]fluoren-9-one]	430 nM
CCc1nnc2nc3c(nn12)-c1ccccc1C3=O [Example 1d/B, 3-Ethyl-1,2,3a, 4,10-pentaaza-cyclopenta[b]fluoran-9-one]	95 nM
CCCc1nnc2nc3c(nn12)C(=O)c1ccccc1-3 [Example 1e/A, 1-Propyl-2,3,4,10,10a-pentaaza-cyclopenta[b]fluoren-9-one]	1270 nM
CCCc1nnc2nc3c(nn12)-c1ccccc1C3=O [Example 1e/B, 3-Propyl-1,2,3a, 4,10-pentaaza-cyclopenta[b]fluoren-9-one]	168 nM
CCCCc1nnc2nc3c(nn12)C(=O)c1ccccc1-3 [Example 1f/A, 1-Butyl-2,3,4,10,10a-pentaaza-cyclopenta[b]fluoren-9-one]	364 nM
CCCCc1nnc2nc3c(nn12)-c1ccccc1C3=O [Example 1f/B, 3-Butyl-1,2,3a,4,10-pentaaza-cyclopenta[b]fluoren-9-one]	91 nM
CC(C)Cc1nnc2nc3c(nn12)C(=O)c1ccccc1-3 [Example 1g/A, 1-Isobutyl-2,3,4,10,10a-pentaaza-cyclopenta[b]fluoren-9-one]	636 nM
CC(C)Cc1nnc2nc3c(nn12)-c1ccccc1C3=O [Example 1g/B, 3-Isobutyl-1,2,3a,4,10-pentaaza-cyclopenta[b]fluoren-9-one]	183 nM
O=C1c2ccccc2-c2nc3nnc(CO)n3nc21 [Example 1h/A, 1-Hydroxymethyl-2,3,4,10,10a-pentaaza-cyclopenta[b]fluoren-9-one]	390 nM
O=C1c2ccccc2-c2nn3c(CO)nnc3nc21 [Example 1h/B]	158 nM
COCc1nnc2nc3c(nn12)C(=O)c1ccccc1-3 [Example 1i/A, 1-Methoxymethyl-2,3,4,10,10a-pentaaza-cyclopenta[b]fluoren-9-one]	261 nM
COCc1nnc2nc3c(nn12)-c1ccccc1C3=O [Example 1i/B, 3-Methoxymethyl-1,2,3a, 4,10-pentaaza-cyclopenta[b]fluoren-9-one]	202 nM
O=C1c2ccccc2-c2nc3nnc(C4CC4)n3nc21 [Example 1j/A, 1-Cyclopropyl-2,3,4,10,10a-pentaaza-cyclopenta[b]fluoren-9-one]	1900 nM
O=C1c2ccccc2-c2nn3c(C4CC4)nnc3nc21 [Example 1j/B, 3-Cyclopropyl-1,2,3a,4,10-pentaaza-cyclopenta[b]fluoren-9-one]	55 nM
O=C1c2ccccc2-c2nc3nnc(Cc4ccccc4)n3nc21 [Example 1k/A, 1-Benzyl-2,3,4,10,10a-pentaaza-cyclopenta[b]fluoren-9-one]	598 nM
O=C1c2ccccc2-c2nn3c(Cc4ccccc4)nnc3nc21 [Example 1k/B, 3-Benzyl-1,2,3a,4,10-pentaaza-cyclopenta[b]fluoren-9-one]	164 nM
Cc1nnc2nc3c(nn12)-c1ccc(Cl)cc1C3=O [Example 3/B, 7-Chloro-3-methyl-1,2,3a, 4,10-pentaaza-cyclopenta[b]fluoren-9-one]	71 nM
Cn1nc2nc3c(nc2n1)-c1ccccc1C3=O [Example 4a, 2-Methyl-2H-1,2,3,4,10-pentaaza-cyclopenta[b]fluoren-9-one]	3400 nM
O=C1c2ccccc2-c2nc3nn(Cc4ccccc4)nc3nc21 [Example 4b, 2-Benzyl-2H-1,2,3,4,10-pentaaza-cyclopenta[b]fluoren-9-one]	7800 nM
